Blank lines part the entries; values can stand above or below the molecule they belong to. Positions of bridges follow the written chain, without caps; N, C: chain ends. Non-standard residues stand in square brackets, D forms with d. Residues, ends and D or L forms follow the SMILES beside them. Phe(4-CH2NH2) = NCc1ccc(C[C@H](N)C(=O)O)cc1; Thz(5,5-Me2) = CC1(C)SCN[C@@H]1C(=O)O; NMeR = CN[C@@H](CCCNC(=N)N)C(=O)O
Tests used:
[1] = inhibition of platelet aggregation in human platelet rich plasma
[2] = Inhibition of human platelet aggregation
[3] = Inhibition of canine platelet aggregation
[4] = Inhibition of human gel filtered platelet aggregation induced by ADP
[5] = Inhibition of collagen-induced platelet aggregation
[6] = Inhibition of human platelet aggregation in platelet rich plasma (PRP)
[7] = Inhibition of ADP-induced platelet aggregation
[8] = Inhibition of alpha IIb beta-3 integrin mediated platelet aggregation
[9] = as above; remark: listed apart in the source
[10] = Inhibition of ADP-induced platelet aggregation; remark: listed apart in the source
[11] = Inhibition of human gel filtered platelet aggregation mediated by 10 uM ADP
[12] = Inhibition of human platelet aggregation in platelet rich plasma

Compound: CC(=O)N[C@H]1CSSC[C@@H](C(N)=O)NC(=O)[C@H](CC(=O)O)NC(=O)CNC(=O)[C@H](CCCNC(=N)N)N(C)C1=O [[16-Acetylamino-4-carbamoyl-13-(3-guanidino-propyl)-14-methyl-6,9,12,15-tetraoxo-1,2-dithia-5,8,11,14-tetraaza-cycloheptadec-7-yl]-acetic acid (SK&F 106760)] (Ac-C[NMeR]GDC-NH2; disulfide 1-5)
IC50 [2]: 230 nM | IC50 [3]: 90 nM

Compound: CCOC(=O)CCNC(=O)N[C@H]1CCN(c2ccc(C(=N)N)cc2)C1=O [SC-57099B]
IC50 [4]: 80 nM | IC50 [5]: 130 nM

Compound: N=C(N)c1ccc(C(=O)Nc2ccc3c(c2)C(=O)N(CCC(=O)O)Cc2nnnn2-3)cc1 [3-[8-(4-Carbamimidoyl-benzoylamino)-6-oxo-4H,6H-1,2,3,5,10b-pentaaza-benzo[e]azulen-5-yl]-propionic acid(G7453)]
IC50 [7]: 54 nM

Compound: CCCCOC(=O)N[C@@H](CNC(=O)C1CC(OCc2ccc(C(=N)N)cc2)=NO1)C(=O)OC (some centres not stated) [2-Butoxycarbonylamino-3-{[3-(4-carbamimidoyl-benzyloxy)-4,5-dihydro-isoxazole-5-carbonyl]-amino}-propionic acid methyl ester(XU 065)]
IC50 [10]: 50 nM

Compound: CC(=O)N[C@H]1CSSC[C@@H](C(=O)O)NC(=O)[C@H](CC(=O)O)NC(=O)CNC(=O)[C@H](Cc2ccc(CN)cc2)NC(=O)[C@H]2N(CSC2(C)C)C(=O)[C@H](CC(N)=O)NC1=O [8-Acetylamino-22-(4-aminomethyl-benzyl)-5-carbamoylmethyl-16-carboxymethyl-1,1-dimethyl-4,7,15,18,21,24-hexaoxo-icosahydro-2,10,11-trithia-3a,6,14,17,20,23-hexaaza-cyclopentacyclotricosene-13-carboxylic acid (MK-0852)] (Ac-CN[Thz(5,5-Me2)][Phe(4-CH2NH2)]GDC-OH; disulfide 1-7)
IC50 [11]: 26 nM

Now from value to molecule:

IC50 [1]: 38 nM
Compound: CCOC(=O)COC1CCN(C(=O)[C@H](C)NC(=O)c2ccc(C(=N)NO)cc2)CC1 [((S)-1-{2-[4-(N-Hydroxycarbamimidoyl)-benzoylamino]-propionyl}-piperidin-4-yloxy)-acetic acid ethyl ester]

IC50 [6]: 94 nM
Compound: O=C(CCCC1CCNCC1)NCC(=O)N[C@H](CCc1c[nH]c2ccccc12)C(=O)O [L-703014]

IC50 [8]: 23 nM
Compound: C[C@H](CC(=O)O)NC(=O)CN1CCC[C@@H](CCC2CCNCC2)C1=O [3-{2-[2-Oxo-3-(2-piperidin-4-yl-ethyl)-piperidin-1-yl]-acetylamino}-butyric acid (L-734217)]

IC50 [9]: 45 nM
Compound: CCOC(=O)CC1CCN(C(=O)C(C)(C)[C@@H](CC)NC(=O)c2ccc(C(=N)N3CCSC3)cc2F)CC1 [(1-{3-[2-Fluoro-4-(imino-thiazolidin-3-yl-methyl)-benzoylamino]-2,2-dimethyl-pentanoyl}-piperidin-4-yl)-acetic acid ethyl ester(NSL-96184)]

IC50 [12]: 3.5 nM
Compound: O=C(NC[C@H](NS(=O)(=O)c1ccccc1)C(=O)O)c1cnc(N2CCN(C3CCNCC3)CC2)s1 [2-Benzenesulfonylamino-3-{[2-(4-piperidin-4-yl-piperazin-1-yl)-thiazole-5-carbonyl]-amino}-propionic acid (UR-12947)]
